Results as given in US10253081B2, “Glucagon analogues” (Zealand Pharma A/S, priority 2012, dated 2019).
*1 amine or outer side, *2 acyl side, *3 side chain or, on linkers, in order; H or OH if unused. Where a SMILES comes first, the peptide text is derived from it. Side-chain parts run from the residue outwards. [ ]: non-standard residue; d: D form. The star is where a group is joined. γGlu = O=C(O)[C@H](CCC(=O)[*:2])N[*:1]; Palmitoyl = CCCCCCCCCCCCCCCC(=O)*; Aib = CC(C)(N)C(=O)O

Tests used:
Assay type in all cases: cell-based
[1] = molecular target: T1, human glucagon receptor (Glucagon-R) (Homo sapiens, UniProt P47871); assay: Glucagon receptor efficacy assay (cAMP AlphaScreen, CHO cells); conditions: Table 1B; same protocol, different laboratory; read-out: EC50 hGCGR CHO-K1
T1 construct: expressed in transfected cells
T1 sequence (P47871 26-477): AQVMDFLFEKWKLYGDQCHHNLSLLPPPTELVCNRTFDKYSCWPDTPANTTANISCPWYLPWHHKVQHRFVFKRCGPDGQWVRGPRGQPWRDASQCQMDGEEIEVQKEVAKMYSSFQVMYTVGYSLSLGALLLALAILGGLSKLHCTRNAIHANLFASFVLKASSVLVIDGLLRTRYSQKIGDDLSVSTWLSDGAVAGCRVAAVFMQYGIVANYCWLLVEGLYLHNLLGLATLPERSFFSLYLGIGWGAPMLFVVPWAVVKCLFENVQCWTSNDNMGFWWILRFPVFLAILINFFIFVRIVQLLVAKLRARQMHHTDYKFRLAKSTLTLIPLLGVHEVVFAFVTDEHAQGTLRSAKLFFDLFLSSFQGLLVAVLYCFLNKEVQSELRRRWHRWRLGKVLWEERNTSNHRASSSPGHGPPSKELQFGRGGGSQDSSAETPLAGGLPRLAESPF
Source text: (§1) The cDNA encoding either the human glucagon receptor (Glucagon-R) (primary accession number P47871) or the human glucagon-like peptide 1 receptor (GLP-1R) (primary accession number P43220) were synthesized and cloned into a mammalian expression vector containing a Zeocin resistance marker.
(§2) The mammalian expression vectors encoding the Glucagon-R or the GLP-1-R were transfected into Chinese hamster ovary (CHO) cells by the Attractene method method. Stably expressing clones were obtained by Zeocin selection (250 μg/mL) upon limited dilution of cells resistant to the selection pressure. Glucagon-R and GLP-1-R cell clones expressing were picked, propagated and tested in the Glucagon-R and GLP-1-R efficacy assays as described below. One Glucagon-R expressing clone and one GLP-1-R expressing clone were chosen for compound profiling.
(§3) CHO cells expressing the human Glucagon-R, or human GLP-1-R were seeded 24 hours prior to the assay at 30,000 cells per well in 96-well microtiter plates in culture in 100 μl growth medium. On the day of analysis, growth medium was removed and the cells were washed once with 200 μl of assay buffer (Krebs-Ringer-buffer—KRBH). The buffer was removed and the cells were incubated for 15 min at room temperature in 10 μl KRBH (KRBH+10 mM HEPES, 5 mM NaHCO3, 0.1% (V/V) BSA) with 0.1 mM IBMX in deionized water containing increasing concentrations of test peptides. The reaction was stopped by the addition of lysis buffer (0.1% w/v BSA, 5 mM HEPES, 0.3% v/v Tween-20). After cell lysis for 10 min at room temperature, lysates were transferred to 384-well plates and 10 μl of acceptor/donorbead mixture as contained in the AlphaScreen™ cAMP Functional Assay Kit was added. After one hour of incubation at room temperature in the dark, the cAMP content was determined applying the AlphaScreen™ cAMP Functional Assay Kit from Perkin-Elmer according to manufacturer instructions. EC50 and relative efficacies compared to reference compounds (glucagon and GLP-1) were calculated applying computer aided curve fitting. The GLP-1/glucagon ratio is calculated as defined earlier.

[2] = molecular target: T2, endogenous glucagon receptor (Rattus norvegicus, UniProt P30082); assay: Agonistic activity on endogenous glucagon receptor (glycogen synthesis rate in primary rat hepatocytes); conditions: inhibition of glycogen synthesis rate, 3 hours, read-out: EC50 GLP-1R Rat hepat.
T2 construct: Agonistic activity of the test compounds on endogenous glucagon receptor; endogenous in cells; host or cells: primary rat hepatocytes
T2 sequence (P30082 27-485): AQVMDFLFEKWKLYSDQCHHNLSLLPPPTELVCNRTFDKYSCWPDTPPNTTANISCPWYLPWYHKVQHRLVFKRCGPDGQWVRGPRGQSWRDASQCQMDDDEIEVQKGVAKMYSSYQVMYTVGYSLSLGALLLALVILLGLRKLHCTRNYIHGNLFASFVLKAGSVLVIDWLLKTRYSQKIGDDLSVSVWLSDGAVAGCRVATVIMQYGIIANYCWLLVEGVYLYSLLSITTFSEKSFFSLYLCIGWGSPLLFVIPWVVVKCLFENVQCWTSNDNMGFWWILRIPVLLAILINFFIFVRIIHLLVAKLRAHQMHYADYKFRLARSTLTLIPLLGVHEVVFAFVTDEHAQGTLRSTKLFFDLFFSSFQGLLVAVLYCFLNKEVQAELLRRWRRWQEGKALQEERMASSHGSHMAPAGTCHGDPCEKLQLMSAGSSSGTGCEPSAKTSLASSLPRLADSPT
Procedure: Agonistic activity of the test compounds on endogenous glucagon receptor was determined by measuring their effect on rate of glycogen synthesis in primary rat hepatocytes. Upon activation of the glucagon receptor, an inhibition of the glycogen synthesis rate is expected. Rate of glycogen synthesis was determined by counting the amount of radioactively labeled glucose incorporated into the cellular glycogen stores in a defined period of time.
Primary rat hepatocytes were cultured at a density of 40,000 cells/well in a 24-well plate for 24 hours at 37° C. and 5% CO2.
Medium was discarded and the cells washed with PBS. 180 μL of KRBH-based buffer containing 0.1% BSA and glucose at a concentration of 22.5 mM was then added to the wells, followed by test compound and 40 μCi/ml D-[U14C] glucose (20 μL each). Incubation was continued for 3 hours.
At the end of the incubation period, the incubation buffer was aspirated and cells washed once with ice-cold PBS before lysis by incubation for 30 min at room temperature with 100 μL 1 mol/l NaOH.
Cell lysates were transferred to 96-well filter plates and glycogen precipitated by incubating the filter-plates for 120 min at 4° C. followed by washing the filter plates 4 times with ice-cold ethanol (70%). The resulting precipitates were filtered to dryness and the amount of incorporated ^14C-glucose determined by using a Topcount scintillation counter according to manufacturer's recommendations.
Wells with vehicle controls (0.1% (v/v) DMSO in KRBH buffer) were included as reference for non-inhibited glycogen synthesis (100% CTL). Wells without added D-[U^14C] glucose were included as controls for non-specific background signal (subtracted from all values). Endogenous glucagon peptide was used as a positive control.
All treatments were performed at least in triplicates.
Parameters calculated to describe the both the potency as well as the agonistic activity of each test compound on the endogenous glucagon receptor are pEC50 and % CTL. % CTL is determined by calculating the percentage of CPM/well in the presence of the test compound compared to the CPM/well of the vehicle control after subtracting the background CPM/well: [CPM/well(basal)−CPM/well(sample)]*100/[CPM/well(basal)−CPM/well(control)]
An activator of the glucagon receptor will result in an inhibition of the glycogen synthesis rate and will give % CTL values between 0% CTL (complete inhibition) and 100% CTL (no observable inhibition).
The resulting activity curves were plotted as absolute counts (unit: cpm/sample) over log (test compound concentration) and analyzed using the curve fitting program XLfit.
pEC50 (negative logarithmic value of EC50) reflects the potency of the test compound.
The terms EC50 and pEC50 quoted in relation to GLP-1R activation could equally be regarded as IC50 and pIC50 in relation to glycogen synthesis.

[3] = molecular target: T3, endogenous GLP-1 receptors (Mus musculus, UniProt O35659); assay: Agonistic activity on endogenous GLP-1 receptor (cAMP, murine insulinoma cell line); conditions: intracellular cAMP, 15 minutes at 26° C.; read-out: EC50 GLP-1R (murine insulinoma cells)
T3 construct: Agonistic activity of the test compounds on endogenous GLP-1 receptors; endogenous in cells
T3 sequence (O35659 22-463): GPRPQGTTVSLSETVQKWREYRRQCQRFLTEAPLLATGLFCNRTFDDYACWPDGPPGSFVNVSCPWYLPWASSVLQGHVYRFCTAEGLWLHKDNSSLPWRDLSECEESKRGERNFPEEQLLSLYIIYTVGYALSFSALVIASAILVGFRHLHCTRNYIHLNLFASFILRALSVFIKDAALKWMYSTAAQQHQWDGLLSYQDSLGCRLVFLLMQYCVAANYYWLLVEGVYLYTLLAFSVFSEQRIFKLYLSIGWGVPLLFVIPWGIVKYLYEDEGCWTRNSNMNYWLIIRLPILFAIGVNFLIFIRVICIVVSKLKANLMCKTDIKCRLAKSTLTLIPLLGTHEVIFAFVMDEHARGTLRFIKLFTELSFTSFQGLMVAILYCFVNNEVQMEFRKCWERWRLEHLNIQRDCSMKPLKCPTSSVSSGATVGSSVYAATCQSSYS
Procedure: Agonistic activity of the test compounds on endogenous GLP-1 receptors was determined using a murine insulinoma cell line. Intracellular cAMP was used an indicator of receptor activation.
Cells were cultured for 24 h at a density of 10,000 cells/well in a 384-well plate. Medium was removed and 10 μL KRBH buffer (NaCl 130 mM, KCl 3.6 mM, NaH2PO4 0.5 mM, MgSO4 0.5 mM, CaCl2) 1.5 mM) containing test compound or GLP-1 (at increasing concentrations from […] to 100 nM) or solvent control (0.1% (v/v) DMSO) was added to the wells for 15 minutes at a temperature of 26° C.
The cellular cAMP content is measured using the AlphaScreen cAMP Functional Assay Kit (Perkin Elmer). Measurement was performed using the Envision (PerkinElmer) according to manufacturer's recommendations.
All measurements were performed in quadruplicate.
Results were converted into cAMP concentrations using a cAMP standard curve prepared in KRBH buffer containing 0.1% (v/v) DMSO. The resulting cAMP curves were plotted as absolute cAMP concentrations (nM) over log (test compound concentration) and analyzed using the curve fitting program XLfit.
Parameters calculated to describe the both the potency as well as the agonistic activity of each test compound on the endogenous GLP-1 receptors were:
pEC50 (negative logarithmic value of EC50, a concentration resulting in a half-maximal elevation of cAMP levels, reflecting the potency of the test compound);
Percent control (% CTL)(% cAMP elevation for each test compound concentration normalized based on the GLP-1-induced maximum cAMP response (100% CTL)).

[4] = molecular target: T4, human glucagon-like peptide 1 receptor (GLP-1R) (Homo sapiens, UniProt P43220); assay: GLP-1 receptor efficacy assay (cAMP AlphaScreen, CHO cells); conditions: Table 1B; for Ratio GLP-1/Glucagon: EC50 [GLP-1R]/EC50 [Glucagon-R]; for EC50: same protocol, different laboratory, read-out: EC50 hGLP-1R CHO-K1
T4 construct: expressed in transfected cells
T4 sequence (P43220 24-463): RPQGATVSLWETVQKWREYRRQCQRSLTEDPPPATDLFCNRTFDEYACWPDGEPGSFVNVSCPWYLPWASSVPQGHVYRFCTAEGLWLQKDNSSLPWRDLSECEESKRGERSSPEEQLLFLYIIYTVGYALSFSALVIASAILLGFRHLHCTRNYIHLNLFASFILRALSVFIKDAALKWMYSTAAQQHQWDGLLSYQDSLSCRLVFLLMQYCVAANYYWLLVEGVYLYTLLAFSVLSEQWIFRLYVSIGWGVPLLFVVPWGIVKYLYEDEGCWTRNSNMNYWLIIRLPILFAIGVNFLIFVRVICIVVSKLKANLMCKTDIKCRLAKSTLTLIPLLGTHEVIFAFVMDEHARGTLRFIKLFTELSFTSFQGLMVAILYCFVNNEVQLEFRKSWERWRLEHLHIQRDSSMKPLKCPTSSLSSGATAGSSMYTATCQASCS
Source text: as §1, §2, §3

Compound: CCCCCCCCCCCCCCCC(=O)N[C@@H](CCC(=O)NCCCC[C@H](NC(=O)[C@H](CO)NC(=O)[C@H](CCC(=O)O)NC(=O)[C@H](CC(C)C)NC(=O)[C@H](Cc1ccc(O)cc1)NC(=O)[C@H](CCCCN)NC(=O)[C@H](CO)NC(=O)[C@H](Cc1ccc(O)cc1)NC(=O)[C@H](CC(=O)O)NC(=O)[C@H](CO)NC(=O)[C@@H](NC(=O)[C@H](Cc1ccccc1)NC(=O)[C@@H](NC(=O)CNC(=O)[C@H](CCC(N)=O)NC(=O)C(C)(C)NC(=O)[C@@H](N)Cc1c[nH]cn1)[C@@H](C)O)[C@@H](C)O)C(=O)N[C@@H](C)C(=O)N[C@@H](C)C(=O)N[C@@H](CCC(=O)O)C(=O)N[C@@H](CC(=O)O)C(=O)N[C@@H](Cc1ccccc1)C(=O)N[C@H](C(=O)N[C@@H](CCC(=O)O)C(=O)N[C@@H](Cc1c[nH]c2ccccc12)C(=O)N[C@@H](CC(C)C)C(=O)N[C@@H](CCC(=O)O)C(=O)N[C@@H](CO)C(=O)N[C@@H](C)C(N)=O)[C@@H](C)CC)C(=O)O [Compound 21, H-H-Aib-QGTFTSDYSKYLES-K(Hexadecanoyl-isoGlu)-AAEDFIEWLESA-NH2] (H-H[Aib]QGTFTSDYSKYLESK([γGlu-Palmitoyl])AAEDFIEWLESA-NH2)
- EC50 [1]: 1.32 nM
- EC50 [2]: 3.4 nM
- EC50 [3]: 0.3 nM
- Ratio GLP-1/Glucagon [4]: 0.09
- EC50 [4]: 0.12 nM

Compound: CCCCCCCCCCCCCCCC(=O)N[C@@H](CCC(=O)NCCCC[C@H](NC(=O)[C@H](CCC(=O)O)NC(=O)[C@H](CCC(=O)O)NC(=O)[C@H](CC(C)C)NC(=O)[C@H](Cc1ccc(O)cc1)NC(=O)[C@H](CCCCN)NC(=O)[C@H](CO)NC(=O)[C@H](Cc1ccc(O)cc1)NC(=O)[C@H](CC(=O)O)NC(=O)[C@H](CO)NC(=O)[C@@H](NC(=O)[C@H](Cc1ccccc1)NC(=O)[C@@H](NC(=O)CNC(=O)[C@H](CCC(N)=O)NC(=O)C(C)(C)NC(=O)[C@@H](N)Cc1c[nH]cn1)[C@@H](C)O)[C@@H](C)O)C(=O)N[C@@H](C)C(=O)N[C@@H](C)C(=O)N[C@@H](CCCCN)C(=O)N[C@@H](CC(=O)O)C(=O)N[C@@H](Cc1ccccc1)C(=O)N[C@H](C(=O)N[C@@H](CCC(=O)O)C(=O)N[C@@H](Cc1c[nH]c2ccccc12)C(=O)N[C@@H](CC(C)C)C(=O)N[C@@H](CCC(=O)O)C(=O)N[C@@H](CO)C(=O)N[C@@H](C)C(N)=O)[C@@H](C)CC)C(=O)O [Compound 20, H-H-Aib-QGTFTSDYSKYLEE-K(Hexadecanoyl-isoGlu)-AAKDFIEWLESA-NH2] (H-H[Aib]QGTFTSDYSKYLEEK([γGlu-Palmitoyl])AAKDFIEWLESA-NH2)
- EC50 [1]: 0.68 nM
- EC50 [2]: 0.39 nM
- EC50 [3]: 0.27 nM
- Ratio GLP-1/Glucagon [4]: 0.34
- EC50 [4]: 0.23 nM

Compound: CCCCCCCCCCCCCCCC(=O)N[C@@H](CCC(=O)NCCCC[C@H](NC(=O)[C@H](CCC(=O)O)NC(=O)[C@H](CC(=O)O)NC(=O)[C@H](CC(C)C)NC(=O)[C@H](Cc1ccc(O)cc1)NC(=O)[C@H](CCCCN)NC(=O)[C@H](CO)NC(=O)[C@H](Cc1ccc(O)cc1)NC(=O)[C@H](CC(=O)O)NC(=O)[C@H](CO)NC(=O)[C@@H](NC(=O)[C@H](Cc1ccccc1)NC(=O)[C@@H](NC(=O)CNC(=O)[C@H](CCC(N)=O)NC(=O)[C@@H](CO)NC(=O)[C@@H](N)Cc1c[nH]cn1)[C@@H](C)O)[C@@H](C)O)C(=O)N[C@@H](C)C(=O)N[C@@H](C)C(=O)N[C@@H](CCCCN)C(=O)N[C@@H](CC(=O)O)C(=O)N[C@@H](Cc1ccccc1)C(=O)N[C@H](C(=O)N[C@@H](CCC(=O)O)C(=O)N[C@@H](Cc1c[nH]c2ccccc12)C(=O)N[C@@H](CC(C)C)C(=O)N[C@@H](CCC(=O)O)C(=O)N[C@@H](CO)C(=O)N[C@@H](C)C(N)=O)[C@@H](C)CC)C(=O)O [Compound 25, H-H-DSer-QGTFTSDYSKYLDE-K(Hexadecanoyl-isoGlu)-AAKDFIEWLESA-NH2]
- EC50 [1]: 0.16 nM
- EC50 [2]: 0.15 nM
- EC50 [3]: 0.41 nM
- Ratio GLP-1/Glucagon [4]: 1.94
- EC50 [4]: 0.31 nM
